Measured values reported in patent US11446244B2 (priority 2020, dated 2022).
Entries after “also recorded” stand apart in the source; their conditions may differ.

What was measured:
lung metastases = assay: Example 9: osteosarcoma lung metastasis patient case, Gemcitabine dpi; format: in vivo; settings: Gemcitabine 60 dpi BID
Description: 2 months later, after standard chemoradiotherapy is completed, they are found to have three 1-cm lung metastases. […] undergoes second line treatment but the lesions progress, so they are started on Gemcitabine 60 dpi BID and has stabilization for 12 months thereafter. Here also, Verteporfin, Ribavirin, and/or Gemcitabine dpi could all be given together coupled with inhaled or intravenous Perflubron (emulsion).

[1] = intravenous administration; cited from earlier work
Coronavirus = assay: Example 7: coronavirus infection patient case, Ribavirin dpi; format: in vivo; settings: dpi 60 mg twice daily for 6 days, started after 2 days of fever
Experimental: A nonsmoker having no previous lung disease develops symptoms of fever for 2 days and is then immediately started on Ribavirin dpi 2 p or 60 mg twice daily for 6 days. […] They avoid hospitalization and thereby avoids what may have been up to an increased 15-20% risk. Verteporfin and Gemcitabine dpi could be substituted for the Ribavirin.

SARS-CoV = settings: BALB/c mice; cited from earlier work
SARS-CoV-2 = settings: patients with severe COVID-19; intravenous Ribavirin versus supportive care only; cited from earlier work
nsp14 = nsp14 (Severe acute respiratory syndrome coronavirus, UniProt P0C6X7); settings: cited from earlier work
[2] = in vivo; cited from earlier work
[3] = Example 8: COPD and bilateral pneumonia/ARDS patient case, acetylcysteine dpi; format: in vivo; settings: dpi every 4 hours with a bronchodilator
Experimental: A smoker with history of moderate chronic obstructive pulmonary disease (COPD) mixed type who has been diagnosed with acute respiratory distress syndrome (ARDS) secondary to bilateral pneumonia. The patient has a very productive cough but not expectorating significant secretions and is currently on high flow system 70% FIO2 (fraction of inspired oxygen). […] The patient is initiated on acetylcysteine dpi every 4 hours along with a bronchodilator (e.g., DUONEB albuterol and ipratropium).

[4] = Example 11: interstitial pulmonary fibrosis patient case, Verteporfin; format: in vivo; settings: 15 mg 1 p BID
Description: A nonsmoker farmer has a diagnosis of interstitial pulmonary fibrosis with progressive symptoms over the past 6 months and with reduction in FVC by Pulmonary Function testing. […] Here also, Verteporfin combined with inhaled Perflubron nintedanib may be given. Subsequent or concomitant PDT and/or SDT promotes the elimination of myofibroblasts/macrophages that are otherwise engaged in fibrosis.

Glioblastoma multiforme = assay: Example 12: glioblastoma multiforme patient case, Verteporfin nasal and oral inhalation; format: in vivo; settings: 15 mg two puffs twice daily, six weeks
Experimental: The patient had standard of care treatment that included surgical resection, radiation and chemotherapy, but then had recurrence and is not candidate for surgical curative intent.
Immunohistochemistry at the 2nd operation is positive for PD-L1 and the patient is started on Verteporfin 15 mg two puffs twice daily both nasal and oral for the next six weeks. […] Here, drug delivery via intravenous route is avoided and possible direct brain delivery via nasal pathway is enabled. Here, systematic delivery of the drug by both nasal and oral inhalation is contemplated.

[5] = cited from earlier work
[6] = lipophilic solvents such as perfluorocarbons like perflubron; cited from earlier work
[7] = molecular target: YAP1 (yes-associated protein 1) (Homo sapiens, UniProt P46937); settings: cited from earlier work
YAP1 (yes-associated protein 1), sequence (P46937 whole entry): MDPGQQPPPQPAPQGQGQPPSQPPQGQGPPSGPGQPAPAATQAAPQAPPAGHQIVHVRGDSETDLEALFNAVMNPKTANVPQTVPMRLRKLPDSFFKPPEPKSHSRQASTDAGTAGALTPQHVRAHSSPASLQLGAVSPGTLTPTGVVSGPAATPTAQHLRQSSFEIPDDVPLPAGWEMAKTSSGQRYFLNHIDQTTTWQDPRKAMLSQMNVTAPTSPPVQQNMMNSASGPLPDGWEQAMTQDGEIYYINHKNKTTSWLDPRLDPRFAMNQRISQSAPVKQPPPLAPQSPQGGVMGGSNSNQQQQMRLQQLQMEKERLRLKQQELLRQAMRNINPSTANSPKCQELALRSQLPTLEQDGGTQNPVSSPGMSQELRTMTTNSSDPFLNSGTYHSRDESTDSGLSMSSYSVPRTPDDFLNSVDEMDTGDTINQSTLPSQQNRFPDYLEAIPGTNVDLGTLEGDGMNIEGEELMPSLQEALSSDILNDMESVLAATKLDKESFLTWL

Nc1ccn([C@@H]2O[C@H](CO)[C@@H](O)C2(F)F)c(=O)n1 [Gemcitabine]
duration of stabilization of lung metastases (lung metastases): 12 months
warning label adverse effects [1]: can suppress bone marrow function

NC(=O)c1ncn([C@@H]2O[C@H](CO)[C@@H](O)[C@H]2O)n1 [Ribavirin]
clinical outcome (symptoms) (Coronavirus): symptomatic improvement
SARS-CoV infection in treated mice (SARS-CoV): increased SARS-CoV1 infection
negative conversion time for SARS-CoV-2 test (SARS-CoV-2): not associated with improved negative conversion time; also recorded: not associated with reduced negative conversion time
excision of Ribavirin by exonuclease activity of nsp14 (nsp14): can efficiently excise
hemoglobin concentrations [2]: reduces hemoglobin concentrations

CC(=O)N[C@@H](CS)C(=O)O [acetylcysteine, N-acetyl cysteine]
clinical outcome (need for mechanical ventilation) [3]: avoid mechanical ventilation

Verteporfin
effect on lung decline [4]: stabilizing effect on lung decline
tumor mass (Glioblastoma multiforme): overall reduction in tumor mass
extent of exposure and maximal plasma concentration versus dose ([5]; dose between 6-20 mg/m^2): proportional to the dose
serum half-life ([5]; in vivo): 5 to 6 h
solubility [6]: soluble in lipophilic solvents
YAP1 inhibition [7]: inhibits YAP1
